# Experimental data from patent US11542311B2, “Fusion protein, preparation method therefor and application thereof in preparing ophthalmic disease treatment, anti-inflammation and anti-tumor medicament” (JIANGSU RONGTAI BIOTECH CO., LTD., priority 2017, dated 2023).
# Key:
# mouse spleen lymphocytes = test: Proliferation of mouse spleen lymphocytes (ConA, MTT); type: cell-based; conditions: 20 μg/mL, 48 h
# Procedure: Tris-NH4Cl was used to break the red blood cells, which were allowed to stand in an ice water bath for 4 min and centrifuged (1000 rpm, 5 min), the supernatant was discarded, and the cells were washed twice with sterile PBS.
# The cells were statically cultured in a cell incubator at 37° C. for 48 h. After the completion of the culture, 20 μL of MTT was added to each well, and the culture was continued for 4 h. Finally, all the solutions in each well were discarded, 100 μL of DMSO was added to each well, and the mixture was shaken and detected by a microplate reader for OD value at 570 nm. 5 parallels were preformed for per well.
# [1] = tested on: toe swelling in rat induced by carrageenan; test: Acute inflammation of toe swelling in rat induced by carrageenan; type: in vivo, SD rats; conditions: 10 mg/kg
# Procedure: 80 SD rats were randomly divided into 8 groups with 10 mice for each group. […] The drug was administered once by injection every 5 days, and the model group was given an equal volume of physiological saline for 3 days and fed normally. On the third day after the administration, 0.1 mL of 1% carrageenan was injected subcutaneously into the right hind toes of the rats to induce inflammation. The foot volume was measured at 1 h, 3 h, 5 h, and 7 h after inflammation. The swelling degree of the foot was calculated according to the following formula: the swelling degree of the foot (mL)=the volume of the foot after inflammation−the volume before inflammation. The number of milliliters of spilled liquid was recorded (method: the protruding point of the right joint was circled with a ballpoint pen and used as a measurement mark, and the right hind feet of the rats were sequentially placed in the volume measuring device, so that the hind limbs were exposed outside the cylinder, and the depth of the immersion was limited to the overlap of the circle and the liquid level. After the foot entered the liquid, the liquid level was raised, and the volume of the spilled liquid was the volume of the right hind foot of the rat, and the normal volume of the right hind foot of each mouse is sequentially determined).
# [2] = tested on: peritoneal capillary permeability in mice; test: Peritoneal capillary permeability in mice (Evans blue, HAc); type: in vivo, Kunming mice; conditions: 10 mg/kg by injection
# Procedure: The drug was administered once by injection every 5 days, and the blank model group was given an equal volume of physiological saline for 5 days and fed normally. On the 5th day after the administration, a 5 g/L of Evans blue physiological saline solution was injected into the tail vein at […], followed by intraperitoneal injection ([…]) HAc solution (6 mL/L) to induce inflammation. After 20 min, the mice were sacrificed by cervical dislocation. 5 mL of physiological saline was intraperitoneally injected, the abdomen was gently rubbed for 2 min, the abdominal cavity was cut, a peritoneal washing solution was collected and centrifuged at 4000 rpm for 10 min, 1 mL of supernatant was taken, and 3 mL of physiological saline was added to obtain a 4 mL of dilution. The absorbance OD value of the dilution was measured by an ultraviolet spectrophotometer at a wavelength of 590 nm, and the amount of pigment exudation was expressed by the OD590 nm value, and peritoneal capillary permeability in mice was examined.
# [3] = tested on: IL-1β production by mouse peritoneal macrophages; test: IL-1β production by mouse peritoneal macrophages (ELISA); type: cell-based; conditions: 20 μg/mL, 48 h
# Procedure: (1) IL-1β production: mice were intraperitoneally injected with 1 mL of broth medium containing 6% starch, and three days later, the mouse peritoneal macrophages were aseptically taken, washed twice with a 1640 medium, adjusted to the cell concentration of 2×10^6 cells/mL, inoculated into a 24-well culture plate, 1 mL/well, incubated for 3 h in a cell culture incubator, and shaken once every 30 min, so that the cells were allowed to adhere sufficiently. Then, the cells were washed twice with a culture liquid to remove un-adhered cells. […] After administration, the culture was continued for 48 h, the cells were centrifuged at 1000 r/min for 15 min. The supernatant was taken as a sample for testing activity of IL-1β.
# (2) Determination of IL-1β content: the detection was performed by using mouse IL-1β enzyme-linked immunosorbent assay kit from R&D company. […]
# [4] = tested on: angiogenesis of chicken embryo chorioallantoic membrane; test: Chicken embryo chorioallantoic membrane (CAM) angiogenesis assay; type: in vivo, White Leghorn chicken embryos; conditions: 10 μg, 72 hours
# Procedure: The study has shown that the biosynthesis rate of collagen reached the maximum on the 8th to 11th day of chicken embryo development, which was the most vigorous stage of angiogenesis, and the body's immune system had not yet been fully established at that time, and thus the chicken embryos developed to the 8th day was selected to be administered. […] The following steps were used:
# (1) The White Leghorn chicken embryos on day 6 were cultured in a 37° C. incubator at 60%-70% humidity for two days.
# (2) A 1.0 cm×1.0 cm window was drilled above the chicken embryo air sac, and the inner membrane was torn off with forceps to expose the chorioallantoic membrane. Lens paper having a diameter of 5 mm was used as a loading carrier, and was placed on the chorioallantoic membrane of the chicken embryo air sac. […]
# (3) The chicken embryo air sac was sealed with a sterile transparent tape, and after culturing at 37° C. for 72 hours, the chicken embryo air sac was opened, and a fixative (formaldehyde:acetone=1:1) was added for fixation for 15 minutes. The chorioallantoic membrane to which the lens paper was adhered was taken out, the distribution of the new blood vessels was observed, and the new blood vessels were counted and photographed. Five replicates were set for each dose and the results were statistically analyzed.
# [5] = tested on: human retinal vascular endothelial cell (HRCEC); test: MTT assay, proliferation of human retinal vascular endothelial cell (HRCEC); type: cell-based; conditions: 5 μg/mL, 48 h
# Procedure: The activity of the integrin blocker polypeptide to inhibit proliferation of human retinal vascular endothelial cells was examined by MTT assay. HRCEC cells were cultured in a 5% CO2 incubator at 37° C. to a density of 90% or more, and then collected by trypsinization. The cells were resuspended in the culture liquid and counted under a microscope. The cell concentration was adjusted to 3.0×10^4 cells/mL. The cell suspension was inoculated into a 96-well plate, 100 μL per well, and cultured overnight in a 5% CO2 incubator at 37° C. […] After the cells were fully adhered, each dilution was added to a 96-well plate, 100 μL per well, respectively. […] 20 μL of 5 mg/mL MTT was added to each well of a 96-well plate, and incubation was continued for 4 hours. The medium was aspirated and 100 μL of DMSO was added per well for dissolution. The absorbance was measured at 570 nm with a microplate reader with a reference wavelength of 630 nm, and the proliferation inhibition (PI) was calculated. The formula was as follows: […]
# where Ntest is the OD value of the test group and Ncontrol is the OD value of the blank control group.
# The test was repeated 5 times independently. The results obtained from the test were calculated as mean±SD, and statistical t-test was performed. P<0.05 was considered as a significant difference, and P<0.01 was considered as an extremely significant difference.
Molecule,A570 nm/A630 nm (mouse spleen lymphocytes),PI (%) (mouse spleen lymphocytes),Swelling degree ([1]; 1 h after carrageenan) [mL],Swelling degree ([1]; 3 h after carrageenan) [mL],Swelling degree ([1]; 5 h after carrageenan) [mL],Swelling degree ([1]; 7 h after carrageenan) [mL],Exudation rate (OD590) [2],IL-1β [3] [pg/mL],PI (%) ([3]; IL-1β),Blood vessel number [4],A570 nm/A630 nm [5]
"C[C@@H]1C[C@H]2[C@@H]3CCC4=CC(=O)C=C[C@]4(C)[C@@]3(F)[C@@H](O)C[C@]2(C)[C@@]1(O)C(=O)CO [Dex, dexamethasone, reference compound]",0.3468 ± 0.1144,41.11,0.21 ± 0.11,0.26 ± 0.10,0.26 ± 0.11,0.25 ± 0.09,0.27 ± 0.03,322.46 ± 20.56,61.38,–,–
"bevacizumab [Avastin ®, reference compound]",–,–,–,–,–,–,–,–,–,63 ± 17,0.4544
